Reference: publication PMC7377239, “Cardiovascular Effects of Polychlorinated Biphenyls and Their Major Metabolites” (Environmental Health Perspectives, 2020)
Where two headings read alike, the source gives them in different places.

Columns and labels:
[1] = test system: iPSC-CMs, iPSC-ECs and HUVECs phenotypes; test: ToxPi 2.0 integration of POD values and physicochemical descriptors; set-up: species or system human; conditions: ToxPi-scaled (0-1) score; for huvec.cyto.24hr / huvec.mito.24hr / huvec.mitoint.24hr / huvec.nma.24hr / huvec.tc.24hr / huvec.mtl.18hr / huvec.tlps.18hr / huvec.tta.18hr / huvec.ttl.18hr: HUVECs; for huvec.mtl.18hr / huvec.tlps.18hr / huvec.tta.18hr / huvec.ttl.18hr / endo.mtl.18hr / endo.tlps.18hr / endo.tta.18hr / endo.ttl.18hr: tube formation; for cm.amp.avg.90min / cm.amp.cv.90min / cm.bpm.90min / cm.cam.90min / cm.decay.rise.90min / cm.mii.90min / cm.mito.90min / cm.spacing.cv.90min / cm.tc.90min / cm.amp.avg.24hrs / cm.amp.cv.24hrs / cm.bpm.24hrs / cm.cam.24hrs / cm.decay.rise.24hrs / cm.mii.24hrs / cm.mito.24hrs / cm.spacing.cv.24hrs / cm.tc.24hrs: iPSC cardiomyocytes; for endo.cyto.24hr / endo.mito.24hr / endo.mitoint.24hr / endo.nma.24hr / endo.tc.24hr / endo.mtl.18hr / endo.tlps.18hr / endo.tta.18hr / endo.ttl.18hr: iPSC endothelial cells
In short: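 Phenotypic readouts in iPSC-cardiomyocytes, iPSC-endothelial cells and HUVECs were normalised to 0.5% DMSO vehicle and fitted to a four-parameter logistic model. POD set at one SD cutoff of vehicle means, with 100 μM assigned when no response. PODs and physicochemical descriptors combined in ToxPi 2.0 scores.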

[2] = test system: HUVECs; test: Tube formation (tubulogenesis) assay in HUVECs, 18 h; type: cell-based, human; conditions: for huvec.mtl.18hr / huvec.tlps.18hr / huvec.tta.18hr / huvec.ttl.18hr: HUVECs tube formation, 0.00 µM = 100.00; for minimal effective concentration: Homo sapiens, HUVEC, 18 h
In short: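 HUVECs (passage 1–5) seeded on reduced-growth-factor basement membrane and exposed to compounds overnight at 37°C, 5% CO2, in 2× maintenance medium with 12.5 ng/mL VEGF; 0.5% DMSO vehicle. Calcein AM-stained tube networks imaged and analysed; vehicle-normalized readouts fit to four-parameter logistic, POD set at one SD of vehicle means.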

[3] = tube formation mtl, read-out: POD huvec.mtl.18hr
[4] = tube formation tlps, read-out: POD huvec.tlps.18hr
[5] = tube formation tta, read-out: POD huvec.tta.18hr
[6] = tube formation ttl, read-out: POD huvec.ttl.18hr

## Clc1ccc(Cl)c(-c2c(Cl)ccc(Cl)c2Cl)c1Cl [(-)-PCB 136, 2,2′,3,3′,6,6′-hexachlorobiphenyl]
[1]
  huvec.cyto.24hr: 0.6125
  huvec.mito.24hr: 0.5549
  huvec.mitoint.24hr: 0.9537
  huvec.nma.24hr: 0.4969
  huvec.tc.24hr: 0.6125
  huvec.mtl.18hr: 0.3427
  huvec.tlps.18hr: 0.303
  huvec.tta.18hr: 0.01368
  huvec.ttl.18hr: 0
  cm.amp.avg.90min: 0.7629
  cm.amp.cv.90min: 0.2327
  cm.bpm.90min: 0.26
  cm.cam.90min: 0.908
  cm.decay.rise.90min: 0.5565
  cm.mii.90min: 0.3116
  cm.mito.90min: 0.9077
  cm.spacing.cv.90min: 0.07999
  cm.tc.90min: 0.9177
  cm.amp.avg.24hrs: 0.7236
  cm.amp.cv.24hrs: 1
  cm.bpm.24hrs: 0.3802
  cm.cam.24hrs: 0.2824
  cm.decay.rise.24hrs: 0.8976
  cm.mii.24hrs: 0.3373
  cm.mito.24hrs: 0.4521
  cm.spacing.cv.24hrs: 0.2002
  cm.tc.24hrs: 0.472
  endo.cyto.24hr: 0.3713
  endo.mito.24hr: 0.3713
  endo.mitoint.24hr: 0.4668
  endo.nma.24hr: 0
  endo.tc.24hr: 0.3821
  endo.mtl.18hr: 0.07274
  endo.tlps.18hr: 0.09334
  endo.tta.18hr: 0.6122
  endo.ttl.18hr: 0.627
[2]; concentration 0.01 µM
  huvec.mtl.18hr: 89.52
  huvec.tlps.18hr: 87.45
  huvec.tta.18hr: 86.96
  huvec.ttl.18hr: 85.21
[2]; concentration 0.10 µM
  huvec.mtl.18hr: 105.15
  huvec.tlps.18hr: 104.95
  huvec.tta.18hr: 96.50
  huvec.ttl.18hr: 89.39
[2]; concentration 1.00 µM
  huvec.mtl.18hr: 101.33
  huvec.tlps.18hr: 99.50
  huvec.tta.18hr: 114.69
  huvec.ttl.18hr: 103.47
[2]; concentration 10.00 µM
  huvec.mtl.18hr: 94.11
  huvec.tlps.18hr: 92.84
  huvec.tta.18hr: 112.35
  huvec.ttl.18hr: 101.40
[2]; concentration 100.00 µM
  huvec.mtl.18hr: 75.12
  huvec.tlps.18hr: 53.61
  huvec.tta.18hr: 117.52
  huvec.ttl.18hr: 95.13

## Clc1ccc(-c2ccccc2)cc1 [PCB 3, 4-chlorobiphenyl]
[1]
  huvec.cyto.24hr: 0
  huvec.mito.24hr: 0
  huvec.mitoint.24hr: 0
  huvec.nma.24hr: 0
  huvec.tc.24hr: 0
  huvec.mtl.18hr: 0.3075
  huvec.tlps.18hr: 0
  huvec.tta.18hr: 0.9931
  huvec.ttl.18hr: 0.7484
  cm.amp.avg.90min: 0.3083
  cm.amp.cv.90min: 0.6784
  cm.bpm.90min: 0.3832
  cm.cam.90min: 0.5745
  cm.decay.rise.90min: 0
  cm.mii.90min: 1
  cm.mito.90min: 0.6328
  cm.spacing.cv.90min: 1
  cm.tc.90min: 0.6608
  cm.amp.avg.24hrs: 0.05114
  cm.amp.cv.24hrs: 0.2083
  cm.bpm.24hrs: 0.1867
  cm.cam.24hrs: 0.3496
  cm.decay.rise.24hrs: 0.3179
  cm.mii.24hrs: 0.587
  cm.mito.24hrs: 0.5833
  cm.spacing.cv.24hrs: 0.1653
  cm.tc.24hrs: 0.6127
  endo.cyto.24hr: 0
  endo.mito.24hr: 0
  endo.mitoint.24hr: 0
  endo.nma.24hr: 0
  endo.tc.24hr: 0
  endo.mtl.18hr: 0
  endo.tlps.18hr: 0
  endo.tta.18hr: 0
  endo.ttl.18hr: 0
[2]; [3]
  minimal effective concentration: 25.3 µM
[2]; [4]
  minimal effective concentration: 100 µM
[2]; [5]
  minimal effective concentration: 0.67 µM
[2]; [6]
  minimal effective concentration: 0.7 µM

## Clc1cccc(-c2cccc(Cl)c2)c1 [PCB 11, 3,3′-Dichlorobiphenyl]
[1]
  huvec.cyto.24hr: 0.2265
  huvec.mito.24hr: 0.2773
  huvec.mitoint.24hr: 0.5099
  huvec.nma.24hr: 0.3029
  huvec.tc.24hr: 0.2265
  huvec.mtl.18hr: 0
  huvec.tlps.18hr: 0.1652
  huvec.tta.18hr: 0
  huvec.ttl.18hr: 0
  cm.amp.avg.90min: 0.6423
  cm.amp.cv.90min: 0.3673
  cm.bpm.90min: 0.1538
  cm.cam.90min: 0.6939
  cm.decay.rise.90min: 0.6828
  cm.mii.90min: 0.779
  cm.mito.90min: 0.7948
  cm.spacing.cv.90min: 0.06972
  cm.tc.90min: 0.7336
  cm.amp.avg.24hrs: 0.07152
  cm.amp.cv.24hrs: 0.5878
  cm.bpm.24hrs: 0.1537
  cm.cam.24hrs: 0.1401
  cm.decay.rise.24hrs: 0.254
  cm.mii.24hrs: 0.6195
  cm.mito.24hrs: 0.2384
  cm.spacing.cv.24hrs: 0.3725
  cm.tc.24hrs: 0.241
  endo.cyto.24hr: 0
  endo.mito.24hr: 0
  endo.mitoint.24hr: 0
  endo.nma.24hr: 0
  endo.tc.24hr: 0
  endo.mtl.18hr: 0
  endo.tlps.18hr: 0
  endo.tta.18hr: 0
  endo.ttl.18hr: 0
[2]; [3]
  minimal effective concentration: 100 µM
[2]; [4]
  minimal effective concentration: 41.8 µM
[2]; [5]
  minimal effective concentration: 100 µM
[2]; [6]
  minimal effective concentration: 100 µM

## Clc1ccc(Cl)c(-c2cc(Cl)ccc2Cl)c1 [PCB 52, 2,2′,5,5′-tetrachlorobiphenyl]
[1]
  huvec.cyto.24hr: 0.5178
  huvec.mito.24hr: 0.613
  huvec.mitoint.24hr: 0.5572
  huvec.nma.24hr: 0.3829
  huvec.tc.24hr: 0.5178
  huvec.mtl.18hr: 0
  huvec.tlps.18hr: 0
  huvec.tta.18hr: 0
  huvec.ttl.18hr: 0
  cm.amp.avg.90min: 0.5597
  cm.amp.cv.90min: 0.1687
  cm.bpm.90min: 0.3203
  cm.cam.90min: 0.422
  cm.decay.rise.90min: 0.1841
  cm.mii.90min: 0.8432
  cm.mito.90min: 0.3815
  cm.spacing.cv.90min: 0.1566
  cm.tc.90min: 0.3874
  cm.amp.avg.24hrs: 0.3455
  cm.amp.cv.24hrs: 0.4979
  cm.bpm.24hrs: 0.3481
  cm.cam.24hrs: 0.3478
  cm.decay.rise.24hrs: 0.2921
  cm.mii.24hrs: 0.2822
  cm.mito.24hrs: 0.5634
  cm.spacing.cv.24hrs: 0.2305
  cm.tc.24hrs: 0.578
  endo.cyto.24hr: 0
  endo.mito.24hr: 0
  endo.mitoint.24hr: 0
  endo.nma.24hr: 0
  endo.tc.24hr: 0
  endo.mtl.18hr: 0.02365
  endo.tlps.18hr: 0
  endo.tta.18hr: 0
  endo.ttl.18hr: 0
[2]; [3]
  minimal effective concentration: 100 µM
[2]; [4]
  minimal effective concentration: 100 µM
[2]; [5]
  minimal effective concentration: 100 µM
[2]; [6]
  minimal effective concentration: 100 µM

## Clc1ccc(Cl)c(-c2c(Cl)ccc(Cl)c2Cl)c1 [PCB 95, 2,2′,3,5′,6-pentachlorobiphenyl]
[1]
  huvec.cyto.24hr: 0.9485
  huvec.mito.24hr: 1
  huvec.mitoint.24hr: 0.5155
  huvec.nma.24hr: 0.5037
  huvec.tc.24hr: 0.9485
  huvec.mtl.18hr: 0.5568
  huvec.tlps.18hr: 0
  huvec.tta.18hr: 0
  huvec.ttl.18hr: 0
  cm.amp.avg.90min: 0.3275
  cm.amp.cv.90min: 0.6707
  cm.bpm.90min: 0.7438
  cm.cam.90min: 0.4148
  cm.decay.rise.90min: 0.1633
  cm.mii.90min: 0
  cm.mito.90min: 0.3775
  cm.spacing.cv.90min: 0.2342
  cm.tc.90min: 0.3895
  cm.amp.avg.24hrs: 0
  cm.amp.cv.24hrs: 0.2056
  cm.bpm.24hrs: 1
  cm.cam.24hrs: 0.3236
  cm.decay.rise.24hrs: 0.2316
  cm.mii.24hrs: 0.3974
  cm.mito.24hrs: 0.5198
  cm.spacing.cv.24hrs: 0.1862
  cm.tc.24hrs: 0.5603
  endo.cyto.24hr: 0
  endo.mito.24hr: 0
  endo.mitoint.24hr: 0
  endo.nma.24hr: 0
  endo.tc.24hr: 0
  endo.mtl.18hr: 0.07537
  endo.tlps.18hr: 0.09893
  endo.tta.18hr: 0.06557
  endo.ttl.18hr: 0.054
[2]; [3]
  minimal effective concentration: 8.29 µM
[2]; [4]
  minimal effective concentration: 100 µM
[2]; [5]
  minimal effective concentration: 100 µM
[2]; [6]
  minimal effective concentration: 100 µM
